One assay has as its target human MASP1 (Homo sapiens (Human), UniProt P48740). The experiment in a line: Biochemical human MASP1 assay (FRET substrate). As to conditions: Average IC50; recombinant human MASP1; read-out: human MASP1 IC50. An excerpt:
A truncated cDNA sequence of human MASP1 encoding the fragment corresponding to the amino acids 297-699 with a C-terminal His Tag and N-terminal Ig-kappa secretion signal (SEQ ID No: 2) was subcloned into the mammalian expression vector pcDNA3.1 (Invitrogen).
The MASP1 or MASP2 expression vectors were transfected into the HEK293 (ATCC No. CRL-1573) cell line using Lipofectamine LTX® Reagent (Thermo-Fischer), as described by the manufacturer. The mature form of the recombinant human MASP1 and MASP2 proteases were secreted into the culture medium. The MASP1 and MASP2 proteins were purified from the conditioned media by affinity chromatography on Ni-NTA Superflow resin (Qiagen) as described by the manufacturer.
2.2 Biochemical Human MASP1 Assay
Recombinant human MASP1 enzyme produced in the HEK 293 cells was diluted in the reaction buffer (50 mM HEPES pH 8,0; 100 mM NaCl; 0,01% CHAPS; 0.5 mM Gluthathione) to the concentration of 20 nM and 25 μl was transferred into each single well of 384-well white microtiter plate (Greiner Bio One 781075). 1 μl of the inhibitor compound solution (dissolved in DMSO, at the corresponding concentration) or pure DMSO as a control was added to the same wells. The enzymatic reaction was initiated by addition of 25 μl of 20 μM solution of the FRET substrate ABZ-[…]-Lys (Dnp)-NH2; (ABZ-2-aminobenzoyl; DNP 2,4-dinitrophenyl; custom synthesis by Jerini Peptide Technologies, Berlin) in the reaction buffer. The microtiter plate was incubated for 60-120 min at the temperature of 32 C. The increase of fluorescence intensity was measured in appropriate fluorescence plate reader (e.g. TECAN Ultra) using excitation wavelength of 320 nm and emission wavelength of 420 nm. IC50 values were calculated from percentage of inhibition of human MASP1 activity as a function of test compound concentration.

For a further assay, the target named is human MASP2 (Homo sapiens (Human), UniProt O00187). Nature of the assay: Biochemical human MASP2 assay (FRET substrate). The conditions noted are these: Average IC50; recombinant human MASP2; read-out: human MASP2 IC50. An excerpt: The MASP1 or MASP2 expression vectors were transfected into the HEK293 (ATCC No. CRL-1573) cell line using Lipofectamine LTX® Reagent (Thermo-Fischer), as described by the manufacturer. The mature form of the recombinant human MASP1 and M[…] were secreted into the culture medium. The MASP1 and M[…] were purified from the conditioned media by affinity chromatography on Ni-NTA Superflow resin (Qiagen) as described by the manufacturer. 2.3 Biochemical Human MASP2 Assay […] The enzymatic reaction was initiated by addition of 25 μl of 60 μM solution of the FRET substrate DABCYL-[…]; […] The microtiter plate was incubated for 60-120 min at the temperature of 32 C. The increase of fluorescence intensity was measured in appropriate fluorescence plate reader (e.g. TECAN Ultra) using excitation wavelength of 340 nm and emission wavelength of 490 nm. IC50 values were calculated from percentage of inhibition of human MASP2 activity as a function of test compound concentration.
Chain of human MASP2 (O00187 other isoform, or with tags, fused parts or gaps): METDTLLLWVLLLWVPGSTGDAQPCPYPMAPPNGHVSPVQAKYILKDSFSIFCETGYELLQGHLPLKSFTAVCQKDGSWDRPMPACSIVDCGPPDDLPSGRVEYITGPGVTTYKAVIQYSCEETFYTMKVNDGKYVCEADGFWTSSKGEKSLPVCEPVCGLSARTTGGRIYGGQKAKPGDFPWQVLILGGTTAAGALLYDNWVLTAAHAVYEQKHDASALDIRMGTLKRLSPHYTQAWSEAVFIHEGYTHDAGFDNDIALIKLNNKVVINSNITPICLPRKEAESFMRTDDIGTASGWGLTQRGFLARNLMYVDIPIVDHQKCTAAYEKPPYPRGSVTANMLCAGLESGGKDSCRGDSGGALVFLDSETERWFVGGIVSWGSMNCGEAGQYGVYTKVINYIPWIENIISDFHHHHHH

Consider twelve molecules from patent publication US20240010684A1, “MASP INHIBITORY COMPOUNDS AND USES THEREOF” (BAYER AKTIENGESELLSCHAFT, priority 2020, published 2024).

Molecules are shown by their SMILES. Where a SMILES comes first, the peptide text is derived from it. Bridges are numbered along the chain shown (N, C = ends). [ ]: non-standard residue; d: D form. Oic = O=C(O)[C@@H]1C[C@@H]2CCCC[C@@H]2N1; tBuAla = CC(C)(C)C[C@H](N)C(=O)O; Pen = CC(C)(S)[C@H](N)C(=O)O; NMeC = CN[C@@H](CS)C(=O)O; Dab = NCC[C@H](N)C(=O)O; Abu = CC[C@H](N)C(=O)O; Dap = NC[C@H](N)C(=O)O; Ahx = NCCCCCC(=O)O

Chain of human MASP1 (P48740 other isoform, or with tags, fused parts or gaps): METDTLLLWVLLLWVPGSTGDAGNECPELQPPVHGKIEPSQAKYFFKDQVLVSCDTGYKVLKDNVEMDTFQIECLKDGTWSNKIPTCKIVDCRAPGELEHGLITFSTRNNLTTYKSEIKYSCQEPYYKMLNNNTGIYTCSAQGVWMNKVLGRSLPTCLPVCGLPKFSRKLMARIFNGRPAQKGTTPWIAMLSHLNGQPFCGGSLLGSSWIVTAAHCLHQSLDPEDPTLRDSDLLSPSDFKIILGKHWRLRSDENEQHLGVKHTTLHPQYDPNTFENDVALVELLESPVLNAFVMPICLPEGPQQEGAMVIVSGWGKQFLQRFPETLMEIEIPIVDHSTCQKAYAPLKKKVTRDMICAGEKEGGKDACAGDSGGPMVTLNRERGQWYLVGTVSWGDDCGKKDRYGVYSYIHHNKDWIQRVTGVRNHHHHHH

Regarding `CC[C@H](C)[C@@H]1NC(=O)CNC(=O)[C@H](CO)NC(=O)CNC(=O)[C@H](CO)NC(=O)[C@H](CC(=O)O)NC(=O)[C@@H]2CCCN2C(=O)[C@H]([C@@H](C)CC)NC(=O)[C@@H]2CSSC[C@H](NC1=O)C(=O)N[C@@H](CO)C(=O)N[C@@H](CCCNC(=N)N)C(=O)N[C@@H](CO)C(=O)N[C@@H](CC(C)C)C(=O)N1CCC[C@H]1C(=O)N1CCC[C@H]1C(=O)N[C@@H]([C@@H](C)CC)C(=O)N2` [Example 21] (cyclo(CIPDSGSGICSRSLPPI); disulfide 1-10), the IC50 (as a rule, the concentration at which inhibition is half-maximal) was 170 nM at human MASP1 and 120 nM at human MASP2.

As to `CC[C@H](C)[C@@H]1NC(=O)CNC(=O)CCCCCNC(=O)[C@@H](CC(=O)O)NC(=O)[C@@H]2CCCN2C(=O)[C@H]([C@@H](C)CC)NC(=O)[C@@H]2CSSC[C@H](NC1=O)C(=O)N[C@@H](CO)C(=O)N[C@@H](CCCNC(=N)N)C(=O)N[C@@H](CO)C(=O)N[C@@H](CC(C)C)C(=O)N1CCC[C@H]1C(=O)N1CCC[C@H]1C(=O)N[C@@H]([C@@H](C)CC)C(=O)N2` [Example 16, [(6S,9S,12S,15S,18R,21S,34R,36aS,42S,45R,48S,50aS,55aS)-21,42,48-tri[(2S)-butan-2-yl]-12-(3-carbamimidamidopropyl)-9,15-bis(hydroxymethyl)-6-(2-methylpropyl)-5,8,11,14,17,20,23,26,33,36,41,44,47,50,55-pentadecaoxotetrapentacontahydro-1H-18,45-(methanodithiomethano)tripyrrolo[2,1-f:2′,1′-r:2″,1″-u][1,4,7,10,13,16,19,22,25,28,31,34,37,40,43]pentadecaazacyclononatetracontin-34-yl]acetic acid] (cyclo([Ahx]GICSRSLPPICIP[dD]); disulfide 4-12), the IC50 at human MASP1 was determined as 150 nM; on human MASP2, 370 nM.

For the molecule `CC[C@H](C)[C@@H]1NC(=O)[C@H](C)NC(=O)CNC(=O)[C@H](C)NC(=O)C[C@@H](C(N)=O)NC(=O)[C@@H]2CCCN2C(=O)[C@H]([C@@H](C)CC)NC(=O)[C@H]2NC(=O)[C@H]([C@@H](C)CC)NC(=O)[C@@H]3C[C@@H]4CCCC[C@@H]4N3C(=O)[C@@H]3CCCN3C(=O)[C@H](CC(C)C)NC(=O)[C@H](CO)NC(=O)[C@H](CCCNC(=N)N)NC(=O)[C@H](CO)NC(=O)[C@H](CSSC2(C)C)NC1=O` [Example 41] (AGAICSRSLP[Oic]I[Pen]IPD-NH2; disulfide 5-13; lactam N-16), the IC50 on human MASP1 was found to be 5.9 nM; on human MASP2, 190 nM.

Regarding `CC[C@H](C)[C@@H]1NC(=O)[C@@H](C)NC(=O)CCCCCNC(=O)CC[C@@H](C(N)=O)NC(=O)[C@@H]2CCCN2C(=O)[C@H]([C@@H](C)CC)NC(=O)[C@H]2NC(=O)[C@H]([C@@H](C)CC)NC(=O)[C@@H]3C[C@@H]4CCCC[C@@H]4N3C(=O)[C@@H]3CCCN3C(=O)[C@H](CC(C)C)NC(=O)[C@H](CO)NC(=O)[C@H](CCCNC(=N)N)NC(=O)[C@H](CO)NC(=O)[C@H](CSSC2(C)C)NC1=O` [Example 79] ([Ahx][dA]ICSRSLP[Oic]I[Pen]IPE-NH2; disulfide 4-12; lactam N-15), the 50% inhibitory concentration (IC50) on human MASP1 came to 22 nM; on human MASP2 it was 45 nM.

In the case of `CC[C@H](C)[C@@H]1NC(=O)CNC(=O)CNC(=O)[C@@H](C)NC(=O)[C@H](CC(=O)O)NC(=O)[C@@H]2CCCN2C(=O)[C@H]([C@@H](C)CC)NC(=O)[C@@H]2CSSC[C@H](NC1=O)C(=O)N[C@@H](CO)C(=O)N[C@@H](CCCNC(=N)N)C(=O)N[C@@H](CO)C(=O)N[C@@H](CC(C)C)C(=O)N1CCC[C@H]1C(=O)N1CCC[C@H]1C(=O)N[C@@H]([C@@H](C)CC)C(=O)N2` [Example 19] (cyclo(CIPD[dA]GGICSRSLPPI); disulfide 1-9), the concentration for half-maximal inhibition (IC50) at human MASP1 came to 49 nM; at human MASP2, 210 nM.

With `CC[C@H](C)[C@@H]1NC(=O)CNC(=O)CNC(=O)[C@H](C)NC(=O)[C@@H](CC(=O)O)NC(=O)[C@@H]2CCCN2C(=O)[C@H]([C@@H](C)CC)NC(=O)[C@@H]2CSSC[C@H](NC1=O)C(=O)N[C@@H](CO)C(=O)N[C@@H](CCCNC(=N)N)C(=O)N[C@@H](CO)C(=O)N[C@@H](CC(C)(C)C)C(=O)N1CCC[C@H]1C(=O)N1CCC[C@H]1C(=O)N[C@@H]([C@@H](C)CC)C(=O)N2C` [Example 47] (cyclo(AGGICSRS[tBuAla]PPI[NMeC]IP[dD]); disulfide 5-13), the results for the IC50 on human MASP1 and at human MASP2 were 8.2 nM and 66 nM, respectively.

With `CC[C@H](C)[C@@H]1NC(=O)CNC(=O)CCCCCNC(=O)[C@H](CC(=O)O)NC(=O)[C@@H]2CCCN2C(=O)[C@H]([C@@H](C)CC)NC(=O)[C@@H]2CSSC[C@H](NC1=O)C(=O)N[C@@H](CO)C(=O)N[C@@H](CCCNC(=N)N)C(=O)N[C@@H](CO)C(=O)N[C@@H](CC(C)(C)C)C(=O)N1CCC[C@H]1C(=O)N1CCC[C@H]1C(=O)N[C@@H]([C@@H](C)CC)C(=O)N2C` [Example 30] (cyclo([Ahx]GICSRS[tBuAla]PPI[NMeC]IPD); disulfide 4-12), the 50% inhibitory concentration (IC50) at human MASP1 came out at 16 nM; at human MASP2 it was 65 nM.

For the molecule `CC[C@H](C)[C@@H]1NC(=O)CNC(=O)[C@@H](N)CCC(=O)NCCCC[C@@H](C(N)=O)NC(=O)[C@H](CC(=O)O)NC(=O)[C@@H]2CCCN2C(=O)[C@H]([C@@H](C)CC)NC(=O)[C@H]2NC(=O)[C@H]([C@@H](C)CC)NC(=O)[C@@H]3C[C@@H]4CCCC[C@@H]4N3C(=O)[C@@H]3CCCN3C(=O)[C@H](CC(C)C)NC(=O)[C@H](CO)NC(=O)[C@H](CCCNC(=N)N)NC(=O)[C@H](CO)NC(=O)[C@H](CSSC2(C)C)NC1=O` [Example 91] (H-EGICSRSLP[Oic]I[Pen]IPDK-NH2; lactam 1-16; disulfide 4-12), the figures for the IC50 at human MASP1 and on human MASP2 were 29 nM and 71 nM, respectively.

`CC[C@H](C)[C@@H]1NC(=O)[C@H](C)NC(=O)CCCCCNC(=O)[C@@H]2CCCN2C(=O)[C@H]([C@@H](C)CC)NC(=O)[C@@H]2CSSC[C@H](NC1=O)C(=O)N[C@@H](CO)C(=O)N[C@@H](CCCNC(=N)N)C(=O)N[C@@H](CO)C(=O)N[C@@H](CC(C)C)C(=O)N1CCC[C@H]1C(=O)N1[C@@H](C[C@@H]3CCCC[C@@H]31)C(=O)N[C@@H]([C@@H](C)CC)C(=O)N2` [Example 25] (cyclo(AICSRSLP[Oic]ICIP[Ahx]); disulfide 3-11): the IC50 amounted to 60 nM at human MASP1 and 610 nM on human MASP2.

`CC[C@H](C)[C@@H]1NC(=O)[C@H](CCN)NC(=O)[C@H](CN)NC(=O)[C@H]([C@@H](C)CC)NC(=O)[C@H]2NC(=O)[C@H]([C@@H](C)CC)NC(=O)[C@@H]3CCCN3C(=O)[C@@H]3CCCN3C(=O)[C@H](CC(C)(C)C)NC(=O)[C@H](CO)NC(=O)[C@H](CCCNC(=N)N)NC(=O)[C@H](CO)NC(=O)[C@H](CSSC2(C)C)NC1=O` [Example 73] (cyclo(CSRS[tBuAla]PPI[Pen]I[Dap][Dab]I); disulfide 1-9): the IC50 turned out to be 42 nM on human MASP1 and 430 nM at human MASP2.

`CC[C@H](C)[C@@H]1NC(=O)CNC(=O)CNC(=O)[C@@H](N)CNC(=O)[C@H](CC(=O)O)NC(=O)[C@@H]2CCCN2C(=O)[C@H]([C@@H](C)CC)NC(=O)[C@@H]2CSSC[C@H](NC1=O)C(=O)N[C@@H](CO)C(=O)N[C@@H](CCCNC(=N)N)C(=O)N[C@@H](CO)C(=O)N[C@@H](CC(C)C)C(=O)N1CCC[C@H]1C(=O)N1CCC[C@H]1C(=O)N[C@@H]([C@@H](C)CC)C(=O)N2` [Example 20] (H-[Dap]GGICSRSLPPICIPD; lactam 1-C; disulfide 5-13): the concentration for half-maximal inhibition (IC50) at human MASP1 came out at 55 nM; at human MASP2, 110 nM.

Consider `CC[C@@H]1NC(=O)CCCCCNC(=O)[C@H](CC(=O)O)NC(=O)[C@@H]2CCCN2C(=O)[C@H]([C@@H](C)CC)NC(=O)[C@@H]2CSSC[C@H](NC(=O)[C@H]([C@@H](C)CC)NC1=O)C(=O)N[C@@H](CO)C(=O)N[C@@H](CCCNC(=N)N)C(=O)N[C@@H](CO)C(=O)N[C@@H](CC(C)(C)C)C(=O)N1CCC[C@H]1C(=O)N1CCC[C@H]1C(=O)N[C@@H]([C@@H](C)CC)C(=O)N2C` [Example 33] (cyclo([Abu]ICSRS[tBuAla]PPI[NMeC]IPD[Ahx]); disulfide 3-11), for which the IC50 was 28 nM on human MASP1 and 62 nM at human MASP2.
